Assay results: patent US20260209234A1, “SUBSTITUTED DIHYDROPYRROLO[3,4-D]PYRIMIDINE COMPOUNDS AND THEIR USE IN TREATING MEDICAL CONDITIONS” (Karuna Therapeutics, Inc., priority 2022, published 2026)
pEC50: −log10 of the molar value.

Key:
hM4 receptors = biological target: T1, hM4 receptors (Homo sapiens, UniProt P08173); assay: Human M4 PAM pERK assay; format: cell-based; details: CHO cells expressing hM4; EC20 of acetylcholine (10 nM final); TR-FRET
T1 construct: expressed in transfected cells; host or cells: CHO cells
T1 sequence (P08173 1-479): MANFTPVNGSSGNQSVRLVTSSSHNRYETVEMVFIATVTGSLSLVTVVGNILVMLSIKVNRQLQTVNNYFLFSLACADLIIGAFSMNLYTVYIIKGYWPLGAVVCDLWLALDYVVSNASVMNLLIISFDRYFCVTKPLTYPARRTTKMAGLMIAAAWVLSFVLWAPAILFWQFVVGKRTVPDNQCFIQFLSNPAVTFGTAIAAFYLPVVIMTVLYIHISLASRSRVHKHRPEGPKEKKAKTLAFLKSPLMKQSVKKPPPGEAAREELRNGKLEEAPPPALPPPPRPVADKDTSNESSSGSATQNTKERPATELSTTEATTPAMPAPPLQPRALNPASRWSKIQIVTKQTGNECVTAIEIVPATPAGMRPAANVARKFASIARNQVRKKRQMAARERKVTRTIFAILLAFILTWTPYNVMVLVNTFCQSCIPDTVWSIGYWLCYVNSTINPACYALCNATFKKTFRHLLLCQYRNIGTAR

human M4 receptor = biological target: T2, human M4 receptor (Homo sapiens, UniProt P08173); assay: M4 GTPγS PAM assay; format: biochemical; details: membranes of CHO-K1 cells stably expressing human M4; EC20 acetylcholine 40 nM; 35S-GTP
T2 construct: expressed in transfected cells
T2 sequence (P08173 1-479): T1 sequence (P08173 1-479)
Procedure, shortened: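 CHO-K1 membranes stably expressing human M4, preincubated with compound and 0.1 μM GDP (final) in 20 mM HEPES, 10 mM MgCl2, 100 mM NaCl, pH 7.4, then EC20 acetylcholine (40 nM final). 35S-GTPγS binding 1 h at room temperature, filtration and scintillation counting.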

rM4 receptors = biological target: T3, rM4 receptors (Rattus norvegicus, UniProt P08485); assay: Rat M4 PAM pERK assay; format: cell-based; details: CHO cells expressing rM4; EC20 of acetylcholine (10 nM final); TR-FRET
T3 construct: expressed in transfected cells; host or cells: CHO cells
T3 sequence (P08485 1-478): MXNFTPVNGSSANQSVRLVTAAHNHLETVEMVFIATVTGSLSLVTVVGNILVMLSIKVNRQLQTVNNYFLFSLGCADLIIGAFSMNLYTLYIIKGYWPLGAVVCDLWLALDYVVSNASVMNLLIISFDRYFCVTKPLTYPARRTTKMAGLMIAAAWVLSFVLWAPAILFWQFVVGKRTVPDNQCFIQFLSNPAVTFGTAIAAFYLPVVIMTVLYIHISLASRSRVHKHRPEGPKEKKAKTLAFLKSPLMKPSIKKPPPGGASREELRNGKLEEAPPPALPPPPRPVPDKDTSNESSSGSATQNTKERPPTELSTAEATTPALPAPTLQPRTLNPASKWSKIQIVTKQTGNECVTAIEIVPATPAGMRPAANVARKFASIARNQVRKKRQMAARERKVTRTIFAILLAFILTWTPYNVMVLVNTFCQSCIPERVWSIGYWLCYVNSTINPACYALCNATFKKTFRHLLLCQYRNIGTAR

Row | Structure (SMILES) | pEC50 (hM4 receptors) | pEC50 (human M4 receptor) | pEC50 (rM4 receptors)
1 | COc1nc(C)nc2c1C(C)N(C(=O)CC1CN(c3ccc(C#N)cc3)C1)C2 (single isomer, unassigned) [Compound I-57, 4-(3-(2-(4-Methoxy-2,5-dimethyl-5,7-dihydro-6H-pyrrolo[3,4-d]pyrimidin-6-yl)-2-oxoethyl)azetidin-1-yl)benzonitrile] | ≤ 5.70 | 5.70 to 6.30 | ≤ 5.70
2 | COc1nc(C)nc2c1C(C)N(C(=O)CC1CN(c3cncnc3)C1)C2 (single isomer, unassigned) [Compound I-60, 1-(4-Methoxy-2,5-dimethyl-5,7-dihydro-6H-pyrrolo[3,4-d]pyrimidin-6-yl)-2-(1-(pyrimidin-5-yl)azetidin-3-yl)ethan-1-one] | ≤ 5.70 | ≤ 5.70 | ≤ 5.70
3 | COc1nc(C)nc2c1CN(C(=O)CC1CN(c3ccnc(C(F)(F)F)c3)C1)C2C (single isomer, unassigned) [Compound I-62, 1-(4-Methoxy-2,7-dimethyl-5,7-dihydro-6H-pyrrolo[3,4-d]pyrimidin-6-yl)-2-(1-(2-(trifluoromethyl)pyridin-4-yl)azetidin-3-yl)ethan-1-one] | 6.30 to 7.00 | 6.30 to 7.00 | 5.70 to 6.30
4 | COc1nc(C)nc2c1CN(C(=O)CC1CN(c3ccnc(C(F)(F)F)c3)C1)C2C (single isomer, unassigned) [Compound I-63, 1-(4-Methoxy-2,7-dimethyl-5,7-dihydro-6H-pyrrolo[3,4-d]pyrimidin-6-yl)-2-(1-(2-(trifluoromethyl)pyridin-4-yl)azetidin-3-yl)ethan-1-one] | 5.70 to 6.30 | 5.70 to 6.30 | ≤ 5.70
5 | COc1nc2c(c(OC)n1)C(C)N(C(=O)CC1CN(c3ccc(C#N)cc3)C1)C2 (single isomer, unassigned) [Compound I-65, 4-(3-(2-(2,4-dimethoxy-5-methyl-5,7-dihydro-6H-pyrrolo[3,4-d]pyrimidin-6-yl)-2-oxoethyl)azetidin-1-yl)benzonitrile] | ≤ 5.70 | ≤ 5.70 | ≤ 5.70
6 | COc1nc2c(c(OC)n1)C(C)N(C(=O)CC1CN(c3ccc(C#N)cc3)C1)C2 (single isomer, unassigned) [Compound I-66, 4-(3-(2-(2,4-dimethoxy-5-methyl-5,7-dihydro-6H-pyrrolo[3,4-d]pyrimidin-6-yl)-2-oxoethyl)azetidin-1-yl)benzonitrile] | ≥ 7.00 | 5.70 to 6.30 | 6.30 to 7.00
7 | COc1nc2c(c(OC)n1)C(C)N(C(=O)CC1CN(c3ccnc(C(F)(F)F)c3)C1)C2 (single isomer, unassigned) [Compound I-68, 1-(2,4-Dimethoxy-5-methyl-5,7-dihydro-6H-pyrrolo[3,4-d]pyrimidin-6-yl)-2-(1-(2-(trifluoromethyl)pyridin-4-yl)azetidin-3-yl)ethan-1-one] | 6.30 to 7.00 | ≥ 7.00 | 6.30 to 7.00
8 | COc1nc2c(c(OC)n1)C(C)N(C(=O)CC1CN(c3ccnc(C(F)(F)F)c3)C1)C2 (single isomer, unassigned) [Compound I-69, 1-(2,4-Dimethoxy-5-methyl-5,7-dihydro-6H-pyrrolo[3,4-d]pyrimidin-6-yl)-2-(1-(2-(trifluoromethyl)pyridin-4-yl)azetidin-3-yl)ethan-1-one] | ≤ 5.70 | ≤ 5.70 | ≤ 5.70
9 | COc1nc(OC)c2c(n1)C(C)N(C(=O)CC1CN(c3ccnc(C(F)(F)F)c3)C1)C2 (single isomer, unassigned) [Compound I-70, 1-(2,4-Dimethoxy-7-methyl-5,7-dihydro-6H-pyrrolo[3,4-d]pyrimidin-6-yl)-2-(1-(2-(trifluoromethyl)pyridin-4-yl)azetidin-3-yl)ethan-1-one] | 5.70 to 6.30 | ≥ 7.00 | ≤ 5.70
10 | COc1nc(OC)c2c(n1)C(C)N(C(=O)CC1CN(c3ccnc(C(F)(F)F)c3)C1)C2 (single isomer, unassigned) [Compound I-71, 1-(2,4-Dimethoxy-7-methyl-5,7-dihydro-6H-pyrrolo[3,4-d]pyrimidin-6-yl)-2-(1-(2-(trifluoromethyl)pyridin-4-yl)azetidin-3-yl)ethan-1-one] | 5.70 to 6.30 | 5.70 to 6.30 | ≤ 5.70
11 | COc1nc(Cl)nc2c1CN(C(=O)CC1CN(c3ccnc(C(F)(F)F)c3)C1)C2 [Compound I-1, 1-(2-Chloro-4-methoxy-5,7-dihydro-6H-pyrrolo[3,4-d]pyrimidin-6-yl)-2-(1-(2-(trifluoromethyl)pyridin-4-yl)azetidin-3-yl)ethan-1-one] | 6.30 to 7.00 | ≥ 7.00 | 5.70 to 6.30
12 | COc1nc(C#N)nc2c1CN(C(=O)CC1CN(c3ccnc(C(F)(F)F)c3)C1)C2 [Compound I-2, 4-Methoxy-6-(2-(1-(2-(trifluoromethyl)pyridin-4-yl)azetidin-3-yl)acetyl)-6,7-dihydro-5H-pyrrolo[3,4-d]pyrimidine-2-carbonitrile] | ≥ 7.00 | ≥ 7.00 | 5.70 to 6.30
13 | COc1cc(N2CC(CC(=O)N3Cc4nc(C#N)nc(OC)c4C3C)C2)cc(C(F)(F)F)n1 (stereo not drawn) [Compound I-31, 4-Methoxy-6-(2-(1-(2-methoxy-6-(trifluoromethyl)pyridin-4-yl)azetidin-3-yl)acetyl)-5-methyl-6,7-dihydro-5H-pyrrolo[3,4-d]pyrimidine-2-carbonitrile] | 6.30 to 7.00 | ≤ 5.70 | ≤ 5.70
14 | COc1nc(C)nc2c1CN(C(=O)CC1CN(c3ccnc(C(F)(F)F)c3)C1)C2 [Compound I-43, 1-(4-Methoxy-2-methyl-5,7-dihydro-6H-pyrrolo[3,4-d]pyrimidin-6-yl)-2-(1-(2-(trifluoromethyl)pyridin-4-yl)azetidin-3-yl)ethan-1-one] | 6.30 to 7.00 | 6.30 to 7.00 | 5.70 to 6.30
15 | COc1nc(C)nc2c1CN(C(=O)CC1CN(c3ccc(C(F)(F)F)nc3)C1)C2 [Compound I-44, 1-(4-Methoxy-2-methyl-5,7-dihydro-6H-pyrrolo[3,4-d]pyrimidin-6-yl)-2-(1-(6-(trifluoromethyl)pyridin-3-yl)azetidin-3-yl)ethan-1-one] | ≤ 5.70 | ≤ 5.70 | 5.70 to 6.30
16 | COc1nc(C)nc2c1CN(C(=O)CC1CN(c3ncns3)C1)C2 [Compound I-45, 2-(1-(1,2,4-Thiadiazol-5-yl)azetidin-3-yl)-1-(4-methoxy-2-methyl-5,7-dihydro-6H-pyrrolo[3,4-d]pyrimidin-6-yl)ethan-1-one] | 6.30 to 7.00 | ≤ 5.70 | 5.70 to 6.30
17 | CCOc1nc(C)nc2c1CN(C(=O)CC1CN(c3ccnc(C(F)(F)F)c3)C1)C2 [Compound I-46, 1-(4-Ethoxy-2-methyl-5,7-dihydro-6H-pyrrolo[3,4-d]pyrimidin-6-yl)-2-(1-(2-(trifluoromethyl)pyridin-4-yl)azetidin-3-yl)ethan-1-one] | 5.70 to 6.30 | 5.70 to 6.30 | ≤ 5.70
18 | Cc1nc2c(c(OC(C)C)n1)CN(C(=O)CC1CN(c3ccnc(C(F)(F)F)c3)C1)C2 [Compound I-47, 1-(4-Isopropoxy-2-methyl-5,7-dihydro-6H-pyrrolo[3,4-d]pyrimidin-6-yl)-2-(1-(2-(trifluoromethyl)pyridin-4-yl)azetidin-3-yl)ethan-1-one] | ≤ 5.70 | ≤ 5.70 | ≤ 5.70
